Results on one compound are retold here after patent publication US20060205949A1, “Crystalline forms of a biphenyl compound” (THERAVANCE, INC., priority 2005, published 2006).

Experiment [1] deals with T1, M3 muscarinic receptor subtype (hM3) (Homo sapiens, UniProt P20309).
T1 construct: expressed in transfected cells
Nature of the experiment: Radioligand binding assay ([3H]-NMS displacement). The conditions noted are these: CHO cell membranes, tested in this or a similar assay. How it is done:
CHO cell lines stably expressing cloned human hM1, hM2, hM3 and hM4 muscarinic receptor subtypes, respectively, were grown to near confluency in medium consisting of HAM's F-12 supplemented with 10% FBS and 250 μg/mL Geneticin. The cells were grown in a 5% CO2, 37° C. incubator and lifted with 2 mM EDTA in DPBS. Cells were collected by 5 minute centrifugation at 650×g, and cell pellets were either stored frozen at −80° C. or membranes were prepared immediately. For membrane preparation, cell pellets were resuspended in lysis buffer and homogenized with a Polytron PT-2100 tissue disrupter (Kinematica AG; 20 seconds×2 bursts). Crude membranes were centrifuged at 40,000×g for 15 minutes at 4° C. […] The protein concentration of the membrane suspension was determined by the method described in Lowry, O. et al., Journal of Biochemistry 193:265 (1951). […]
Radioligand binding assays were performed in 96-well microtiter plates in a total assay volume of 100 μL. […] Filter plates were rinsed three times with wash buffer (10 mM HEPES) to remove unbound radioactivity. […] The plates were then counted in a PerkinElmer Topcount liquid scintillation counter (PerkinElmer Inc., Wellesley, Mass.). Binding data were analyzed by nonlinear regression analysis with the GraphPad Prism Software package (GraphPad Software, Inc., San Diego, Calif.) using the one-site competition model. […]

In experiment [2] the test system is ACh-induced bronchoconstriction. Nature of the experiment: Duration of bronchoprotection in guinea pig model of acetylcholine-induced bronchoconstriction. It is filed as in vivo. The conditions noted are these: inhalation, 1.5 hours post-dose, expected. How it is done: Groups of six male guinea pigs (Duncan-Hartley (HsdPoc:DH) Harlan, Madison, Wis.) weighing between 250 and 350 g are individually identified by cage cards. Throughout the study animals are allowed access to food and water ad libitum.
Test compounds are administered via inhalation over 10 minutes in a whole-body exposure dosing chamber (R&S Molds, San Carlos, Calif.). The dosing chambers are arranged so that an aerosol was simultaneously delivered to 6 individual chambers from a central manifold. Guinea pigs are exposed to an aerosol of a test compound or vehicle (WFI). […] This is measured gravimetrically by comparing pre-and post-nebulization weights of the filled nebulizer.
The bronchoprotective effects of test compounds administered via inhalation are evaluated using whole body plethysmography at 1.5, 24, 48 and 72 hours post-dose.
Forty-five minutes prior to the start of the pulmonary evaluation, each guinea pig is anesthetized with an intramuscular injection of ketamine (43.75 mg/kg), xylazine (3.50 mg/kg) and acepromazine (1.05 mg/kg). […] The depth of anesthesia is monitored and adjusted if the animal responds to pinching of its paw or if the respiration rate is greater than 100 breaths/minute. […]
Starting this program initiates the experimental protocol and data collection. […] By integrating this signal over time, a measurement of […] is calculated for each breath. […]

Bounds are passed on as bounds.

T1 sequence (P20309 whole entry): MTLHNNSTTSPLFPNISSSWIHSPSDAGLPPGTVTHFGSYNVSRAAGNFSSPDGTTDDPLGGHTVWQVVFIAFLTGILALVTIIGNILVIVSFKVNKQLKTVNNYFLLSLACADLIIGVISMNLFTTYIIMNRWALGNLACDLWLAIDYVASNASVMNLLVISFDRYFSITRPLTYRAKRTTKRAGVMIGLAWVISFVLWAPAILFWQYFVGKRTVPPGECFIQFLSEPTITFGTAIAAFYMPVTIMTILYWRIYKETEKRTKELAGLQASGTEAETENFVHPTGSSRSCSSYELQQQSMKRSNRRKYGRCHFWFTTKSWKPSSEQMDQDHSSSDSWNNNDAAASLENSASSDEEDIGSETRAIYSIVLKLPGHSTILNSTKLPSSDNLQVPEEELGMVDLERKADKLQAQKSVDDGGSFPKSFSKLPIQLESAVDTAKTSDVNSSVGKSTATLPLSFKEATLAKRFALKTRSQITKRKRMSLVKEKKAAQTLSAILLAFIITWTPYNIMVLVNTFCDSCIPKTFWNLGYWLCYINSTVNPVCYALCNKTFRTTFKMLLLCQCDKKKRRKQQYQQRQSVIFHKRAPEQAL

On to `O=C(CCN1CCC(OC(=O)Nc2ccccc2-c2ccccc2)CC1)NCCCCCNCc1ccc(O)cc1` [compound of formula I, biphenyl-2-ylcarbamic acid 1-{2-[5-(4-hydroxybenzylamino)pentylcarbamoyl]ethyl}piperidin-4-yl ester], for which the Ki in experiment [1] was under 5 nM. In experiment [2], the “PD2(50) for ACh-induced bronchoconstriction” value is given as “less than 200 μg/mL”.

Broadly, the Ki is the equilibrium dissociation constant of an inhibitor or competing ligand from its target. Read a low Ki as tighter binding.
